According to patent publication US7381537B2, “Use of inhibitors of glutaminyl cyclases for treatment and prevention of disease” (Probiodrug AG, priority 2003, dated 2008):
Entries after “also recorded” stand apart in the source; their conditions may differ. Read-outs that look alike come from different tables or passages of the source. Bridge positions count the residues as written; N and C are the ends. Square brackets hold non-standard residues; d marks the D form. Ends that are not written are not given here. Peptide text beside a SMILES is read from it.

Tests used:
mammalian QC = settings: Busby et al. 1987; cited from earlier work
QC [1] = biological target: T1, QC (Homo sapiens, UniProt Q16769); test: Inhibition and inactivation of human QC by chelators; format: biochemical; parameters: The cDNA of the mature QC starting with codon 38 was fused in frame with the plasmid encoded 6×histidine tag; 6xHis; made in house; host or cells: Pichia pastoris X33 (pPICZαB); also E. coli M15 (pQE-31); settings: for inhibition of human QC catalyzed substrate cyclization: competitive and time-dependent for the chelators
T1 sequence (Q16769 29-361): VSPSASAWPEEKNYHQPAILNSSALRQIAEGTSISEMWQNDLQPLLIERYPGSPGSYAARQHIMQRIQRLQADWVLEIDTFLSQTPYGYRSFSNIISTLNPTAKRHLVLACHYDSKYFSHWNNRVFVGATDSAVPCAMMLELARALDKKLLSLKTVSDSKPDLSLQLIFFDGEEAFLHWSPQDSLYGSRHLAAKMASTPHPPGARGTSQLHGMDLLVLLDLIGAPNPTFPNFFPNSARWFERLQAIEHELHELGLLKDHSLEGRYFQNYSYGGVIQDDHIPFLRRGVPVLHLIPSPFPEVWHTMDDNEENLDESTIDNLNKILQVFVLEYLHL

QC [2] = biological target: T1, QC; test: Continuous spectrophotometric assay of QC substrate conversion (glutamate dehydrogenase coupled), human QC;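 further: initial rates read in microplates at 30 °C, with enzyme activity quantified against an ammonia calibration curve recorded under the same assay conditions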
Method: The initial velocities were evaluated and the enzymatic activity was determined from a standard curve of ammonia under assay conditions. All samples were measured at 30° C., using either the [sequence]luor Plus or the Sunrise (both from TECAN) reader for microplates. Kinetic data was evaluated using GraFit software.

QC [3] = biological target: T1, QC; test: LC/MS-analysis of pyroglutamate formation by QC; format: biochemical
[4] = Method: H-Glu(OMe)-βNA and H-Glu-βNA. […] These fluorogenic substrates were analyzed fluorometrically, utilizing pyroglutamyl aminopeptidase as auxiliary enzyme.
QC [5] = biological target: T1, QC; test: Fluorometric assay with pyroglutamyl aminopeptidase as auxiliary enzyme, human QC; format: biochemical; parameters: The cDNA of the mature QC starting with codon 38 was fused in frame with the plasmid encoded 6×histidine tag; 6xHis; made in house; host or cells: Pichia pastoris X33 (pPICZαB); also E. coli M15 (pQE-31); settings: H-Gln-AMC as substrate
Text: Excitation/emission wavelengths were 320/410 nm.
(§1) Excitation/emission wavelengths were 380/460 nm.
H-Glu(OMe)-βNA and H-Glu-βNA.

QC [6] = biological target: T1, QC; test: Long-term Glu^1-cyclization of Aβ-derived peptides by recombinant human QC, MALDI-TOF; format: biochemical; parameters: The cDNA of the mature QC starting with codon 38 was fused in frame with the plasmid encoded 6×histidine tag; 6xHis; made in house; host or cells: Pichia pastoris X33 (pPICZαB); also E. coli M15 (pQE-31); settings: for turnover of glutamate-containing peptide by QC: pH 5.2 and 6.5, respectively; for suppression of [pGlu^3]Aβ3-11a / [pGlu^3]Aβ3-21a formation from Aβ3-11a / Aβ3-21a: 5 mM benzimidazole, pH 5.2 and 6.5
Method: For long-term testing of Glu^1-cyclization, Aβ-derived peptides were incubated in 100 μl 0.1 M sodium acetate buffer, pH 5.2 or 0.1 M Bis-Tris buffer, pH 6.5 at 30° C. Peptides were applied in 0.5 mM [Aβ3-11a] or 0.15 mM [Aβ3-21a] concentrations, and 0.2 U QC was added all 24 hours.
In case of Aβ3-21a, the assays contained 1% DMSO. At different times, samples were removed from the assay tube, peptides extracted using ZipTips (Millipore) according to the manufacturer's recommendations, mixed with matrix solution (1:1 v/v) and subsequently the mass spectra recorded. Negative controls did either contain no QC or heat deactivated enzyme.
The QC-catalyzed formation of [pGlu^3]Aβ3-11a and [pGlu^3]Aβ3-21a was investigated at pH 5.2 and 6.5, respectively. If the QC-inhibitor benzimidazole was added to the solution before starting the assay by addition of QC, substrate conversion resulting in [pGlu^3]Aβ3-11a or [pGlu^3]Aβ3-21a was suppressed (FIGS. 15E and F). If QC was boiled before addition, formation of the pGlu-peptides was negligible (FIGS. 15A and B).

QC [7] = biological target: T1, QC; test: Inhibitor assay: Ki determination in the human QC catalyzed reaction; format: biochemical; parameters: The cDNA of the mature QC starting with codon 38 was fused in frame with the plasmid encoded 6×histidine tag; 6xHis; made in house; host or cells: Pichia pastoris X33 (pPICZαB); also E. coli M15 (pQE-31); settings: text of example 7
Text: as §1

[8] = biological target: T2, purified DP IV (porcine kidney) (Sus scrofa, UniProt P22411); test: Cleavage of [Gln^3]Aβ1-11a by DP IV, MALDI-TOF; format: biochemical
T2 construct: purified DP IV (porcine kidney); from tissue; host or cells: porcine kidney
T2 sequence (P22411 whole entry): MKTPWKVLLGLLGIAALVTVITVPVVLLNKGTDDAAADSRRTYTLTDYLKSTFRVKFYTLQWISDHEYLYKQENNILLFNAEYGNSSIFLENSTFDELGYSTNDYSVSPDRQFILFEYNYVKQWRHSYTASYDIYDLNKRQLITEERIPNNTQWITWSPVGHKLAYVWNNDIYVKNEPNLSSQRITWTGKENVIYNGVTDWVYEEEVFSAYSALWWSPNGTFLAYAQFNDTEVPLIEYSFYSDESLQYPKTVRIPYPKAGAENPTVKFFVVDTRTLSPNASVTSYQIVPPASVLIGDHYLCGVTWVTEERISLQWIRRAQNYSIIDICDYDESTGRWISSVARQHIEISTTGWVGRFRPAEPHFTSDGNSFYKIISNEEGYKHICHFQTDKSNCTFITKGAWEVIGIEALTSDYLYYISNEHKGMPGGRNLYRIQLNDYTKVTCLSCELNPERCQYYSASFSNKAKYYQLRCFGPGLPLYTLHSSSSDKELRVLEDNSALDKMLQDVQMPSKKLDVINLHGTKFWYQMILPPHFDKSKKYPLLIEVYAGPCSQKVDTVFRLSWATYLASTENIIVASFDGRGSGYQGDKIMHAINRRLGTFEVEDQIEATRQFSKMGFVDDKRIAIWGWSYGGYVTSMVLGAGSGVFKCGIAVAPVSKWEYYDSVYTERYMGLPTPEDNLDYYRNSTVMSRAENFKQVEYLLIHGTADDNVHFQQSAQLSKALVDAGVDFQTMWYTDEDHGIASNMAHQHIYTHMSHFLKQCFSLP
Method: (§2) Matrix-assisted laser desorption/ionization mass spectrometry was carried out using the Hewlett-Packard G2025 LD-TOF System with a linear time of flight analyzer. […] Samples (5 μl) were mixed with equal volumes of the matrix solution. For matrix solution we used DHAP/DAHC, prepared by solving 30 mg 2′,6′-dihydroxyacetophenone (Aldrich) and 44 mg diammonium hydrogen citrate (Fluka) in 1 ml acetonitrile/0.1% TFA in water (1/1, v/v). A small volume (=1 μl) of the matrix-analyte-mixture was transferred to a probe tip and immediately evaporated in a vacuum chamber (Hewlett-Packard G2024A sample prep accessory) to ensure rapid and homogeneous sample crystallization.

QC [9] = biological target: T1, QC; test: Qualitative substrate conversion by MALDI-TOF mass spectrometry, human QC; format: biochemical; parameters: The cDNA of the mature QC starting with codon 38 was fused in frame with the plasmid encoded 6×histidine tag; 6xHis; made in house; host or cells: Pichia pastoris X33 (pPICZαB); also E. coli M15 (pQE-31)
Method: Matrix-assisted laser desorption/ionization mass spectrometry was carried out using the Hewlett-Packard G2025 LD-TOF System with a linear time of flight analyzer. The instrument was equipped with a 337 nm nitrogen laser, a potential acceleration source (5 kV) and a 1.0 m flight tube. Detector operation was in the positive-ion mode and signals were recorded and filtered using LeCroy 9350M digital storage oscilloscope linked to a personal computer. Samples (5 μl) were mixed with equal volumes of the matrix solution. For matrix solution we used DHAP/DAHC, prepared by solving 30 mg 2′,6′-dihydroxyacetophenone (Aldrich) and 44 mg diammonium hydrogen citrate (Fluka) in 1 ml acetonitrile/0.1% TFA in water (1/1, v/v). […]
In order to further investigate the specificity and selectivity of the QCs, peptides were synthesized comprising either a modified N-terminal glutaminyl residue or a modified amino acid in the second position. […] Due to the cyclization of the glutaminyl residue or its analog, respectively, a mass difference of the substrate and the product of catalysis is detected. In cases of ammonia liberation of one mole per mole of substrate, the conversion was also analyzed quantitatively using the spectrophotometric assay.

DP IV and QC = test: Consecutive catalysis of DP IV and QC, crude porcine pituitary homogenate with added DPIV, MALDI-TOF; format: biochemical
Method: as §2

[10] = Table 6, influence of substrate length
[11] = Table 1, physiological substrates
[12] = peptides comprising modified amino acids

Compound: reduced 6-methylpterin
- inhibition of a mammalian QC (mammalian QC): Inhibition

Compound: O=C(O)c1cccc(C(=O)O)n1 [dipicolinic acid]
- inhibition of human QC catalyzed substrate cyclization (QC [1]): abolished
- inactivation of human QC after extensive dialysis (QC [1]; dialysis against 5 mM): almost completely inactivated

Compound: Cc1cc(=O)oc2cc(NC(=O)[C@@H](N)CCC(N)=O)ccc12 [H-Gln-AMC]
- kcat/KM (QC [2]; Table 5, n.r. = not reactive): 98000 ± 2000 M⁻¹ s⁻¹

Compound: [Gln^5]-substance P(5-11): substance P fragment 5-11 with N-terminal glutamine (QQFFGLM; ends and bridges not checked)
- formation of N-terminal pyroglutamate by QC (QC [3]): transformed by QC

Compound: COC(=O)CC[C@H](N)C(=O)Nc1ccc2ccccc2c1 [H-Glu(OMe)-βNA, H-Glu(OMe)-β-naphthylamide]
- stability in Tris and Tricine buffers [4]: remarkable instability

Compound: [Gln^3]-glucagon(3-29): glucagon fragment 3-29 with N-terminal glutamine
- formation of N-terminal pyroglutamate by QC (QC [3]): catalyzed by QC
- second order rate constant (QC [2]; in presence of 1% DMSO): 526000 M⁻¹ s⁻¹
- kcat/KM (QC [2]; recombinant human QC, buffer solution containing 1% DMSO): 526000 ± 17000 M⁻¹ s⁻¹

Compound: COC(=O)CC[C@H](N)C(=O)N[C@@H](Cc1ccccc1)C(=O)N[C@@H](CCCCN)C(=O)N[C@@H](CCCNC(=N)N)C(=O)N[C@@H](CC(C)C)C(=O)N[C@@H](C)C(N)=O [H-Glu(OMe)-Phe-Lys-Arg-Leu-Ala-NH2] (H-E(OMe)FKRLA-NH2)
- inhibition of human QC by the peptide (QC [5]): not inhibited

Compound: C[C@H](NC(=O)[C@H](C)NC(=O)[C@@H](N)CCC(N)=O)C(N)=O [H-Gln-Ala-Ala-NH2] (H-Gln-Ala-Ala-NH2)
- Km (QC [2]; [10]): 87 ± 3 µM

Compound: Oc1cccc2cccnc12 [8-hydroxyquinoline]
- inhibition of human QC catalyzed substrate cyclization (QC [1]): abolished

Compound: NC(=O)CC[C@H](N)C(=O)N[C@@H](Cc1c[nH]cn1)C(=O)N1CCC[C@H]1C(N)=O [[Gln^1]-TRH] (H-Gln-His-Pro-NH2)
- Km (QC [2]; [11]): 90 ± 4 µM

Compound: NC(=O)CC[C@H](N)C(=O)O [H-Gln-OH]
- kcat/KM (QC [2]; Table 5, n.r. = not reactive): n.r.

Compound: C[C@H](NC(=O)[C@@H](N)CCC(N)=O)C(N)=O [H-Gln-Ala-NH2] (H-Gln-Ala-NH2)
- Km (QC [2]; [10]): 155 ± 9 µM

Compound: H-Gln-cyclo(Nε-Lys-Arg-Pro-Ala-Gly-Phe) (H-QKRPAGF; lactam 2-C; SMILES C[C@@H]1NC(=O)[C@@H]2CCCN2C(=O)[C@H](CCCNC(=N)N)NC(=O)[C@@H](NC(=O)[C@@H](N)CCC(N)=O)CCCCNC(=O)[C@H](Cc2ccccc2)NC(=O)CNC1=O)
- kcat (turnover number) (QC [2]; [12]): 22.8 ± 10.6 s⁻¹
- kcat/KM-value (QC [2]; [12]): 95000 ± 3000 M⁻¹ s⁻¹

Compound: [Gln^1]-GnRH: GnRH with N-terminal glutamine: QHWSYGL RP(G) amide
- kcat/KM (QC [2]; [11]): 1.3057e+06 ± 53200 M⁻¹ s⁻¹

Compound: EFRHDSGYE-NH2 [Aβ3-11a]
- turnover of glutamate-containing peptide by QC (QC [6]): serve as QC-substrates

Compound: NC(=O)CC[C@H](N)C(=O)N[C@@H](CCC(=O)O)C(=O)N1CCC[C@H]1C(N)=O [[Gln^1]-FPP] (H-Gln-Glu-Pro-NH2)
- Km (QC [2]; [11]): 87 ± 2 µM

Compound: Cn1cnc(CCN)c1 [1-methyl-4-(β-aminoethyl)-imidazole]
- inhibition of human QC, in words (QC [7]): complete loss of inhibitory activity

Compound: EFRHDSGYEVHHQKLVFFA-NH2 [Aβ3-21a]
- turnover of glutamate-containing peptide by QC (QC [6]): serve as QC-substrates

Compound: DAQFRHDSGYE-NH2 [[Gln^3]Aβ1-11a]
- cleavage by DPIV under formation of [Gln^3]Aβ3-11a [8]: cleaving

Compound: c1ccc2[nH]cnc2c1 [benzimidazole]
- suppression of [pGlu^3]Aβ3-11a / [pGlu^3]Aβ3-21a formation from Aβ3-11a / Aβ3-21a (QC [6]): suppressed
- suppression of [pGlu^3]Aβ3-11a / [pGlu^3]Aβ3-21a formation from Aβ3-11a / Aβ3-21a (QC [6]; listed as Benzimidazole): suppressing

Compound: O=C(O)CN(CCN(CC(=O)O)CC(=O)O)CC(=O)O [EDTA]
- inhibition of a mammalian QC (mammalian QC): did not inhibit
- inhibition of human QC catalyzed substrate cyclization (QC [1]): did not show remarkable inhibition

Compound: H-Gln(NMe)-Phe-Lys-Ala-Glu-NH2 (H-[Gln(NMe)]FKAE-NH2; not fully specified; printed as H-Gln(NMe)-Phe-Lys-Ala-Glu-NH2)
- substrate conversion (cyclization) by human QC (QC [9]): No substrate conversion
- inhibition of human QC by the peptide (QC [5]): not detected

Compound: H-EFKRLA-NH2 [H-Glu-Phe-Lys-Arg-Leu-Ala-NH2]
- inhibition of human QC by the peptide (QC [5]): not inhibited

Compound: CC(C)[C@H](N)C(=O)N1CCCC1 [Val-Pyrr, Val-Pyrrolidide]
- prevention of DP IV-catalysed cleavage of [Gln^3]Aβ1-11a [8]: completely prevented
- prevention of DP IV-catalysed cleavage of [Gln^3]Aβ1-11a ([8]; listed as Val-Pyrrolidide): prevention
- [pGlu^3]Aβ3-11a formation from [Gln^3]Aβ1-11a in presence of catalytically active DP IV and QC (DP IV and QC): not formed; also recorded: reduction

Compound: CC(C)C[C@H](NC(=O)[C@H](CCCNC(=N)N)NC(=O)[C@H](CCCCNC(=O)[C@@H](N)CCC(N)=O)NC(=O)[C@@H](N)CCC(N)=O)C(=O)N[C@@H](C)C(N)=O [H-Gln-Lys(Gln)-Arg-Leu-Ala-NH2] (H-QK(Gln)RLA-NH2)
- substrate conversion (cyclization) by human QC (QC [9]): converted
